In patent publication US20230309554A1, “Polymer Carriers for Delivery of Agrochemicals in Crop Plants” (Carnegie Mellon University, priority 2020, published 2023):

Legend:
tomato leaves = settings: in vivo
Method: Tracer loading into star polymers. To load CV into star polymers, 10 mg of star polymer was dissolved into 5 mL of Milli Q water with pH adjusted to 7.5 by adding aliquots of 0.1M HCl and 0.1 M NaOH. 2 mg of CV was added into the star polymer solution and the mixture was vortex mixed for 24 h. The resulting solution was dialyzed against 2 L of Milli Q water for 2 cycles to remove free CV. After dialysis, the sample volume was adjusted to 20 mL to get a 0.5 g L^−1 CV loaded star polymer solution. Spreading agent Silwet L-77 was added into the star polymer solution at 0.1% (v/v) before foliar application. 20 μL of the CV loaded star polymer was applied onto tomato leaves by drop deposition.
This enhanced resolution dark-field microscope system (BX51, Olympus, USA) was equipped with a 150 W halogen light source (Fiber-Lite, Dolan-Jenner, USA) and a hyperspectral camera (CytoViva hyperspectral imaging system 1.4). […] Hyperspectral images were acquired using 100% light source intensity and 0.1 to 0.25 s acquisition per line and corrected for the lamp contribution. […]
RSP uptake and distribution in tomato leaves. RSP interactions with the plant leaf after foliar application was assessed by dark field hyperspectral imaging (DF-HSI) of crystal violet (CV) loaded RSP in tomato leaves. […]

tomato plants = experiment: Leaf carbon assimilation and chlorophyll fluorescence under combined heat and excess light stress; format: in vivo, Solanum lycopersicum; settings: after heat and light stress 1.5 h
Method: Plant growth. […] The sterilized seeds were germinated in petri-dish on water-soaked filter paper under dark for 10 days. Afterwards, the seedlings were transplanted to 100 mL plastic cups. Each seedling was grown hydroponically using 1⁄4 strength Hoagland's solution aerated using air pumps. […] Leaf carbon assimilation rate and chlorophyll fluorescence. Plant leaf carbon assimilation and chlorophyll fluorescence was measured by a Li-Cor Li-6800 portable photosynthesis system. […] Combined heat and excess light stress. The carbon (A-Ci) and light response (A-PAR) curves of treated leaves were measured before stress conditions. […] The carbon and light response curves were measured again and compared with the curve acquired before stress. […] Light adapted ([…]) chlorophyll fluorescent test were also performed before and after stress conditions. The A-Ci curves were analyzed according to previously reported model for C3 plants: […]

Structure (SMILES)	Location in tomato leaf (tomato leaves)	Photosynthesis enhancement compared to control leaves (tomato plants)
CN(C)c1ccc(C(=C2C=CC(=[N+](C)C)C=C2)c2ccc(N(C)C)cc2)cc1 [CV, crystal violet]	primarily found on the leaf epidermis, with a limited amount inside the mesophyll	
[Cl-].[Cl-].[Mg+2] [Mg^2+]		No significant photosynthesis enhancement
